Here are results for one compound from patent US20030077653A1, “Method for the identification of active site protease inactivators” (The University of Georgia Research Foundation, Inc., priority 2000, published 2003).

“Also recorded” adds a separate entry of the source. Residues, ends and D or L forms follow the SMILES beside them. *: point of attachment. Cbz = O=C(OCc1ccccc1)*; CH2F = FC*

The test system of this assay is Taenia crassiceps cysts. As to the kind of experiment: Scanning electron microscopy of surfaces of cysts removed from treated mice. It is filed as in vivo. The source says: FIG. 9. Scanning electron microscopy of the surface of cysts removed from untreated mice versus cysts removed from treated mice. Magnifications are identical for both slides in each panel. panel A (4000×). […] No immune cells were seen on cysts removed from untreated mice. Panel B (25,000×). […] Microtriches in untreated cysts can be seen to be visibly longer. Visible anchors were also noted for the untreated cysts group, whereas these anchors were not observed in microtriches from treated cysts.
For example, we hypothesized that the cysteine protease was a key parasitic molecule to allow the cyst to evade the host immune response, by cleaving host antibodies. By inhibiting the Taenia cysteine protease with Z-LLY-FMK, we hypothesized that host immunoglobulin could now bind the parasites, and initiate immunological responses (e.g., complement via IgG2a) which would cause damage to the cyst wall. […] We identified macrophages, neutrophils, fibroblasts, and collagenous deposits on the cyst surfaces from treated mice, in comparison to their absence on cysts from untreated mice. General surface atrophy was also apparent. […] Breaks in the integrity of the cyst surface were also noted for the cysts removed from treated mice. […] Cysts removed from untreated mice were characterized by no immune cells, intact and longer microtriches, and homogeneity of the cyst surface.

Consider `CC(C)C[C@H](NC(=O)OCc1ccccc1)C(=O)N[C@@H](CC(C)C)C(=O)N[C@@H](Cc1ccc(O)cc1)C(=O)CF` [Z-LLY-FMK, Z-Leu-Leu-Tyr-FMK] (Cbz-Leu-Leu-Tyr-CH2F), for which the “Immune cells observed by SEM on cyst surfaces” value is “vigorous host immune response; also recorded: presence of adherent immune cells; also recorded: Intense”.
